# Read-outs that look alike come from different tables or passages of the source.
# Legend:
# [1] = Plasma protein binding (mouse); format: in vitro ADME; details: pH 7.4, read-out: PPB mouse (converted)
# Description: (§1) 0.3% DMSO - ΔRatio of 1 µM control compound)x100
# (§2) In vitro Plasma protein binding and Brain homogenate binding: Determination of fraction unbound (f u) in plasma was conducted in vitro via equilibrium dialysis using HTDialysis (HTD) membrane plates. The top half of the plate was filled with 100 uL of Dubelco’s Phosphate Buffered Saline, pH 7.4 (DPBS). Compounds were diluted into plasma from each species (5 µM final concentration), which was aliquoted in triplicate to the ‘bottom half’ of the prepared HTD plate wells. The HTD plate was sealed and incubated for 6 hours at 37 °C. Following incubation, each well (both top and bottom halves) were transferred (20 µL) to the corresponding wells of a 96-shallow-well (V-bottom) plate. The daughter plates were then matrix-matched (DPBS side wells received equal volume of plasma, and plasma side wells received equal volume of DPBS), and extraction solution (120 µL; acetonitrile containing 50 nM carbamazepine as IS) was added to all wells of both daughter plates to precipitate protein and extract test article. The plates were then sealed and centrifuged (3500 rcf) for 10 minutes at ambient temperature. Supernatant (60 µL) from each well of the daughter plates was then transferred to the corresponding wells of new daughter plates (96-shallow-well, V bottom) containing water (Milli-Q, 60 µL/well), and the plates were sealed in preparation for LC-MS/MS analysis (see LC-MS/MS analysis method below).
# (§3) The unbound fraction (f u) was calculated following the equation below, and mean values for each species were calculated from 3 replicates. A similar approach was used to determine the degree of brain homogenate binding, which employed the same methodology and procedure with the following modifications: 1) a final compound concentration of 1 μM was used, 2) naïve rat brains were homogenized in DPBS (1:3 composition of brain: DPBS, w/w) using a Mini-Bead Beater™ machine in order to obtain brain homogenate, which was then treated in the same manner as the plasma samples in the previously described plasma protein binding assay. Fraction unbound for both plasma and brain samples was determined using Equation 4.
# [2] = Liver microsome intrinsic clearance (human); format: in vitro ADME; details: for CLint scaled at 1 µM: pH 7.4, human liver microsomes, read-out: LMS CLINT human
# Description: (§4) After a 5 min preincubation, the reaction was initiated by the addition of NADPH (1 mM). At selected time intervals between 0 ~ 60 min (e.g. 0, 3, 7, 15, 25, 45 and/or 60 min), aliquots were taken and subsequently placed into a 96-well plate containing cold acetonitrile with an internal standard (50 ng/mL carbamazepine). Plates were then centrifuged at 3000 rcf (4 °C) for 10 min, and the supernatant was transferred to a separate 96-well plate and diluted 1:1 with water for LC/MS/MS analysis. The in vitro half-life (T 1/2, min, Eq. 1), intrinsic clearance (CLint, mL/min/kg, Eq. 2), and subsequent predicted hepatic clearance (CLhep, mL/min/kg, Eq. 3) were determined employing the following equations: […]
# (§5) where k represents the slope from linear regression analysis of the natural log percent remaining of a test compound as a function of incubation time […]
# (§6) (2) CLint = in vitroT1/2 x mg microsomes x gram liver x kg body wt ascale-up factors: of 20 (human) or 45 (rat) or 87.5 (mouse) […]
# (§7) where Qh (hepatic blood flow, mL/min/kg) is 21 (human) or 70 (rat) or 90 (mouse).
# (§8) LC/MS/MS Bioanalysis of Samples from Plasma Protein Binding and Intrinsic Clearance […]
# (§9) Samples were analyzed on a Thermo Electron TSQ Quantum Ultra triple quad mass spectrometer (San Jose, CA) via electrospray ionization (ESI) with two Themo Electron Accella pumps (San Jose, CA), and a Leap Technologies CTC PAL autosampler (Carrboro, NC). Analytes were separated by gradient elution on a dual column system with two Thermo Hypersil Gold (2.1 x 30 mm, 1.9 µm) columns (San Jose, CA) thermostated at 40 °C. HPLC mobile phase A was 0.1% formic acid in water and mobile phase B was 0.1% formic acid in acetonitrile. The gradient started […]
# (§10) for 0.2 min; returned to 10% B in 0.1 min. The total run time was 1.3 min and the HPLC flow rate was 0.8 mL/min. While pump 1 ran the gradient method, pump 2 equilibrated the alternate column isocratically at 10% B. Compound optimization, data collection, and processing were performed using Thermo Electron's QuickQuan software (v2.3) and Xcalibur (v2.0.7 SP1). […]
# [3] = Liver microsome intrinsic clearance (mouse); format: in vitro ADME; details: pH 7.4; mouse liver microsomes; read-out: LMS CLINT mouse
# Description: as §4, §5, §6, §7, §8, §9, §10
# human TREK-1 = molecular target: T1, human TREK-1 (Homo sapiens, UniProt O95069); test: TREK-1 thallium (Tl+) flux assay; details: for IC50: read-out: h TREK-1 Tl+ IC50, thallium flux, hTREK-1/CHO
# T1 sequence (O95069 1-426): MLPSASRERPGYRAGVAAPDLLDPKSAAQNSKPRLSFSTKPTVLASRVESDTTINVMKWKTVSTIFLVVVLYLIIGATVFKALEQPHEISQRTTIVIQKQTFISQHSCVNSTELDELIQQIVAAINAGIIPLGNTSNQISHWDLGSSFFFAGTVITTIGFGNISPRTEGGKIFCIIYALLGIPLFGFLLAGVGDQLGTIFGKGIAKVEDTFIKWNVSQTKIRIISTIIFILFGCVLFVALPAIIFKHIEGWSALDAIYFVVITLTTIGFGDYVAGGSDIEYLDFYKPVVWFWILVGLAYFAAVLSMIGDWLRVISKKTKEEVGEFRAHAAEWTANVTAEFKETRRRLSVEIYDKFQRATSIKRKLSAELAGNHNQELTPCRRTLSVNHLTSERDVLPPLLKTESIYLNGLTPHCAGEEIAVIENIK
# [4] = Liver microsome intrinsic clearance (rat); format: in vitro ADME; details: pH 7.4; rat liver microsomes; read-out: LMS CLINT rat
# Description: as §4, §5, §6, §7, §8, §9, §10
# Aqueous solubility = format: physicochemical; details: cyclopropyl amides versus N-Boc series
# [5] = Rat IV:PBL PK cassette study / in vivo rat clearance; details: male, Sprague-Dawley, in vivo rat plasma clearance, read-out: rat CLp; for clearance at 24 h: iv, 0.2 mg/kg; for clearance: intravenous
# [6] = Plasma protein binding (species not stated); format: in vitro ADME; details: pH 7.4
# Description: as §1
# as §2, with “Supernatant (60 µL) from each well of the daughter plates was then transferred to the corresponding wells of new daughter plates (96-shallow-well, V bottom) containing water (Milli-Q, 60 µL/well), and the plates were sealed in preparation for LC-MS/MS analysis (see LC-MS/MS analysis method below).” left out
# The unbound fraction (f u) was calculated following the equation below, and mean values for each species were calculated from 3 replicates. […] Fraction unbound for both plasma and brain samples was determined using Equation 4.
# ChromatoLogD = format: physicochemical
# From the text: 1 TREK-1 Inhibitory Activity and Lipophilicity of Analogues 10 | column: ChromatoLogD
# TREK-1 = details: cited from earlier work
# [7] = Plasma protein binding (human); format: in vitro ADME; details: pH 7.4, read-out: PPB human (converted)
# Description: as §1, §2, §3
smiles,measurement,setting,value
CC(C)(C)OC(=O)Nc1ccc(Cl)c(C(=O)Nc2ncc(C#Cc3ccccc3)cc2Cl)c1 [Compound 13b],"fraction unbound at 6 h, 5 µM",[1],< 0.001
Cc1cc(C#Cc2ccccc2F)cnc1NC(=O)c1cc(NC(=O)OC(C)(C)C)ccc1Cl [Compound 14a],CLint scaled at 1 µM,[2],13 mL/min/kg
same,CLint scaled at 1 µM,[3],13 mL/min/kg
same,IC50,human TREK-1,540 nM
Cc1cc(C#Cc2ccccc2)cnc1NC(=O)c1cc(NC(=O)C2CC2)ccc1Cl [Compound 15a],CLint scaled at 1 µM,[2],13 mL/min/kg
same,CLint scaled at 1 µM,[3],69 mL/min/kg
same,CLint scaled at 1 µM,[4],25 mL/min/kg
same,aqueous solubility (in words),Aqueous solubility,no improvement on aqueous solubility
same,clearance at 24 h,[5],12 mL/min/kg
same,"fraction unbound at 6 h, 5 µM",[6],< 0.003
same,IC50,human TREK-1,180 nM
Cc1cc(OCc2ccccc2)cnc1NC(=O)c1cc(NC(=O)OC(C)(C)C)ccc1Cl [Compound 10a],chromatographic logD,ChromatoLogD,4.4
same,CLint scaled at 1 µM,[2],137 mL/min/kg
same,IC50,human TREK-1,560 nM
Cc1ccccc1CC1OC(=O)c2cc(C3CCNCC3)ccc21 (centres unmarked) [Cpd8],IC50,TREK-1,810 nM
Cc1nc(OCc2ccccc2)ccc1NC(=O)c1cc(NC(=O)OC(C)(C)C)ccc1Cl [Compound 10b],chromatographic logD,ChromatoLogD,5
Cc1cc(C#Cc2ccc(F)cc2)cnc1NC(=O)c1cc(NC(=O)C2CC2)ccc1Cl [Compound 15b],CLint scaled at 1 µM,[2],10 mL/min/kg
same,CLint scaled at 1 µM,[3],50 mL/min/kg
same,CLint scaled at 1 µM,[4],10 mL/min/kg
same,aqueous solubility (in words),Aqueous solubility,no improvement on aqueous solubility
same,clearance at 24 h,[5],1.4 mL/min/kg
same,"fraction unbound at 6 h, 5 µM",[6],< 0.003
Cc1cc(C#Cc2ccccc2)cnc1NC(=O)c1cc(NC(=O)OC(C)(C)C)ccc1Cl [Compound 11],CLint scaled at 1 µM,[2],13 mL/min/kg
same,lowering of human microsomal intrinsic clearance,[2]; versus 10a,10 fold
same,CLint scaled at 1 µM,[3],34 mL/min/kg
same,"fraction unbound at 6 h, 5 µM",[7],0.005
same,"fraction unbound at 6 h, 5 µM",[1],0.013
same,increase in TREK-1 potency,human TREK-1; versus 10a,~4 fold
Cc1nc(OCc2ccccc2)cnc1NC(=O)c1cc(NC(=O)OC(C)(C)C)ccc1Cl [Compound 10c],chromatographic logD,ChromatoLogD,4.8
same,clearance,[5],135 mL/min/kg
Cc1cc(C#Cc2cccc(F)c2)cnc1NC(=O)c1cc(NC(=O)OC(C)(C)C)ccc1Cl [Compound 14b],CLint scaled at 1 µM,[2],20 mL/min/kg
same,CLint scaled at 1 µM,[3],40 mL/min/kg
same,"fraction unbound at 6 h, 5 µM",[7],< 0.001
same,"fraction unbound at 6 h, 5 µM",[1],< 0.001
Cc1nc(C#Cc2ccccc2)cnc1NC(=O)c1cc(NC(=O)OC(C)(C)C)ccc1Cl [Compound 12],clearance,[5],25 mL/min/kg
CC(C)(C)OC(=O)Nc1ccc(Cl)c(C(=O)Nc2ncc(C#Cc3ccccc3)cc2F)c1 [Compound 13a],CLint scaled at 1 µM,[2],10 mL/min/kg
same,CLint scaled at 1 µM,[3],6 mL/min/kg
same,"fraction unbound at 6 h, 5 µM",[7],0.002
same,"fraction unbound at 6 h, 5 µM",[1],0.011
O=C(CSc1ccc2ccccc2n1)NNC(=O)c1ccc(Cl)cc1 [TKIM],IC50,TREK-1; state-dependent TREK-1 inhibitor,2960 nM
Cc1cc(C#Cc2ccncc2)cnc1NC(=O)c1cc(NC(=O)OC(C)(C)C)ccc1Cl [Compound 14d],CLint scaled at 1 µM,[2],27 mL/min/kg
same,CLint scaled at 1 µM,[3],78 mL/min/kg
Cc1cc(OCc2ccccc2)ccc1NC(=O)c1cc(NC(=O)OC(C)(C)C)ccc1Cl [Compound 6],chromatographic logD,ChromatoLogD,4.9
same,increase in TREK-1 potency,human TREK-1; versus HTS hit 5,~17 fold
